Reference: EP4467535A1, “LACTAM PESTICIDAL COMPOUNDS” (priority 2023, dated 2024)

Tests used:
Assay type in all cases: in vivo
[1] = system: Yellow fever mosquito (Aedes aegypti); assay: whole plant or invertebrate; settings: 48 h, larval mortality visually assessed after 2 days at 28 ± 1°C, read-out: mortality in comparison with untreated controls
Protocol: Example B1: Action on Yellow fever mosquito (Aedes aegypti)
For evaluating control of yellow fever mosquito (Aedes aegypti) the test unit consisted of 96-well-microtiter plates containing 200µL of tap water per well and 5-15 freshly hatched A. aegypti larvae.
The active compounds or mixtures were formulated using a solution containing 75% (v/v) water and 25% (v/v) DMSO. Different concentrations of formulated compounds or mixtures were sprayed onto the insect diet at 2.5µL, using a custom-built micro atomizer, at two replications.
For experimental mixtures in these tests identical volumes of both mixing partners at the desired concentrations respectively, were mixed together.
After application, microtiter plates were incubated at 28 ± 1°C, 80 ± 5 % relative humidity for 2 days. Larval mortality was then visually assessed.

[2] = system: Orchid thrips (Dichromothrips corbetti); assay: Action on Orchid thrips (Dichromothrips corbetti), floral-immersion technique; settings: adult thrips on dipped orchid petals, 72 hours after treatment, read-out: mortality in comparison with untreated controls
Protocol: Example B2: Action on Orchid thrips (Dichromothrips corbetti)
Dichromothrips corbetti adults used for bioassay were obtained from a colony maintained continuously under laboratory conditions. For testing purposes, the test compound is diluted in a 1:1 mixture of acetone:water (vol:vol), plus Kinetic® HV at a rate of 0.01% v/v.
Thrips potency of each compound was evaluated by using a floral-immersion technique. All petals of individual, intact orchid flowers were dipped into treatment solution and allowed to dryin Petri dishes. Treated petals were placed into individual re-sealable plastic along with about 20 adult thrips. All test arenas were held under continuous light and a temperature of about 28°C for duration of the assay. After 3 days, the numbers of live thrips were counted on each petal. The percent mortality was recorded 72 hours after treatment.

[3] = system: Boll weevil (Anthonomus grandis); assay: Action on Boll weevil (Anthonomus grandis), 96-well microtiter plate insect diet test; settings: 120 h, egg and larval mortality visually assessed after 5 days, read-out: mortality in comparison with untreated controls
Protocol: Example B3: Action on Boll weevil (Anthonomus grandis )
For evaluating control of boll weevil (Anthonomus grandis) the test unit consisted of 96-well-microtiter plates containing an insect diet and 5-10 A. grandis eggs.
The compounds were formulated using a solution containing 75% (v/v) water and 25% (v/v) DMSO. Different concentrations of formulated compounds were sprayed onto the insect diet at 5 µL, using a custom-built micro atomizer, at two replications.
After application, microtiter plates were incubated at about 25 + 1°C and about 75 + 5 % relative humidity for 5 days. Egg and larval mortality were then visually assessed.

[4] = system: Silverleaf whitefly (Bemisia argentifolii) (adults); assay: Action on Silverleaf whitefly (Bemisia argentifolii) adults, sprayed cotton plants; settings: 72 h, read-out: mortality in comparison with untreated controls
Protocol: Example B4: Action on Silverleaf whitefly (Bemisia argentifolii) (adults)
(§1) The active compounds were formulated by a Tecan liquid handler in 100% cyclohexanone as a 10,000 ppm solution supplied in tubes. The 10,000 ppm solution was serially diluted in 100% cyclohexanone to make interim solutions. These served as stock solutions for which final dilutions were made by the Tecan in 50% acetone:50% water (v/v) into 5 or 10ml glass vials. A nonionic surfactant (Kinetic®) was included in the solution at a volume of 0.01% (v/v). The vials were then inserted into an automated electrostatic sprayer equipped with an atomizing nozzle for application to plants/insects.
Cotton plants at the cotyledon stage (one plant per pot) were sprayed by an automated electrostatic plant sprayer equipped with an atomizing spray nozzle. The plants were dried in the sprayer fume hood and then removed from the sprayer. Each pot was placed into a plastic cup and about 10 to 12 whitefly adults (approximately 3-5 days old) were introduced. The insects were collected using an aspirator and a nontoxic Tygon® tubing connected to a barrier pipette tip. The tip, containing the collected insects, was then gently inserted into the soil containing the treated plant, allowing insects to crawl out of the tip to reach the foliage for feeding. […] Mortality was assessed 3 days after treatment, compared to untreated control plants.

[5] = system: Tobacco budworm (Heliothis virescens); assay: Action on Tobacco budworm (Heliothis virescens), 96-well microtiter plate insect diet test; settings: 120 h, egg and larval mortality visually assessed after 5 days, read-out: mortality in comparison with untreated controls
Protocol: Example B5: Action on Tobacco budworm (Heliothis virescens)
For evaluating control of tobacco budworm (Heliothis virescens) the test unit consisted of 96-well-microtiter plates containing an insect diet and 15-25 H. virescens eggs.
The compounds were formulated using a solution containing 75% v/v water and 25% v/v DMSO. Different concentrations of formulated compounds were sprayed onto the insect diet at 10 µl, using a custom-built micro atomizer, at two replications.
After application, microtiter plates were incubated at about 28 + 1°C and about 80 + 5 % relative humidity for 5 days. Egg and larval mortality were then visually assessed.

[6] = system: Diamond back moth (Plutella xylostella); assay: Action on Diamond back moth (Plutella xylostella), cabbage leaf dip test; settings: foliar, third instar larvae on dipped cabbage leaves, 72 hours after treatment, read-out: mortality in comparison with untreated controls
Protocol: Example B6: Action on Diamond back moth (Plutella xylostella)
The active compound is dissolved at the desired concentration in a mixture of 1:1 (v/v) distilled water: acetone. Surfactant (Kinetic® HV) is added at a rate of 0.01% (v/v). The test solution is prepared at the day of use.
Leaves of cabbage were dipped in test solution and air-dried. Treated leaves were placed in petri dishes lined with moist filter paper and inoculated with ten third instar larvae. Mortality was recorded 72 hours after treatment. Feeding damages were also recorded using a scale of 0-100%.

[7] = system: Southern armyworm (Spodoptera eridania), second instar larvae; assay: Action on Southern armyworm (Spodoptera eridania), sprayed lima bean plants; settings: 96 h, 4 days after treatment, read-out: mortality in comparison with untreated controls
Protocol: Example B7: Action on Southern armyworm (Spodoptera eridania), second instar larvae
as §1, with “into 10” for “into 5”, “or 20 mL” for “or 10ml”
Lima bean plants (variety Sieva) were grown 2 plants to a pot and selected for treatment at the 1st true leaf stage. Test solutions were sprayed onto the foliage by an automated electrostatic plant sprayer equipped with an atomizing spray nozzle. The plants were dried in the sprayer fume hood and then removed from the sprayer. Each pot was placed into perforated plastic bags with a zip closure. About 10 to 11 armyworm larvae were placed into the bag and the bags zipped closed. Test plants were maintained in a growth room at about 25°C and about 20-40% relative humidity for 4 days, avoiding direct exposure to fluorescent light (24 hour photoperiod) to prevent trapping of heat inside the bags. Mortality and reduced feeding were assessed 4 days after treatment, compared to untreated control plants.

[8] = system: Diamond back moth (Plutella xylostella); assay: Action on Diamond back moth (Plutella xylostella), 96-well microtiter plate insect diet test; settings: 120 h, read-out: mortality in comparison with untreated controls
Protocol: Example B8: Action on Diamond back moth (Plutella xylostella)
For evaluating control of diamond back moth (Plutella xylostella) the test unit consisted of 96-well-microtiter plates containing an insect diet and 15-25 P. xylostella eggs. The compounds or mixtures were formulated using a solution containing 75% water and 25% DMSO. Different concentrations of formulated compounds or mixtures were sprayed onto the insect diet at 5µl, using a custom-built micro atomizer, at two replications. For experimental mixtures in these tests identical volumes of both mixing partners at the desired concentrations respectively, were mixed together. After application, microtiter plates were incubated at 28 ± 1°C, 80 ± 5 % relative humidity for 5 days. Egg and larval mortality was then visually assessed.

SMILES	mortality at 800 ppm [1] [%]	mortality at 300 ppm [2] [%]	mortality at 800 ppm [3] [%]	mortality at 300 ppm [4] [%]	mortality at 800 ppm [5] [%]	mortality at 300 ppm [6] [%]	mortality at 300 ppm [7] [%]	mortality at 800 ppm [8] [%]
Cc1ccc(C(C)C)c(N2C(=O)CS/C2=N\N=C\c2ccc(-c3nn(C)c(N4Cc5cc(OC(F)(F)F)ccc5C4=O)c3C)cc2)c1 [C-2, (2Z)-2-[(E)-[4-[1,4-dimethyl-5-[1-oxo-5-(trifluoromethoxy)isoindolin-2-yl]pyrazol-3-yl]phenyl]methylenehydrazono]-3-(2-isopropyl-5-methyl-phenyl)thiazolidin-4-one]	≥ 50	≥ 75	≥ 75	≥ 75	≥ 75	≥ 75	≥ 75	–
Cc1ccc(C(C)C)c(N2C(=O)CS/C2=N\N=C\c2ccc(-c3nc(N4CCc5cc(OC(F)(F)F)ccc5C4=O)n(C)n3)cc2)c1 [C-9, (2Z)-3-(2-isopropyl-5-methyl-phenyl)-2-[(E)-[4-[1-methyl-5-[1-oxo-6-(trifluoromethoxy)-3,4-dihydroisoquinolin-2-yl]-1,2,4-triazol-3-yl]phenyl]methylenehydrazono] thiazolidin-4-one]	≥ 50	≥ 75	≥ 75	–	≥ 75	–	≥ 75	≥ 75
